Assay results taken from patent publication US20050220726A1, “Use of sugar esters in cosmetic and/or pharmaceutical preparations” (priority 2003, published 2005).

What was measured:
Assay type in all cases: cell-based
Staphylococcus aureus = test: Agar dilution method (MIC determination); conditions: 18 to 24 h at 37° C.
Procedure: (§1) The antibacterial activity of the test substances was tested by the diffusion method on agar plates or the agar dilution method. In this method, a round filter paper of defined diameter is first impregnated with the test solution and then applied to the surface of an agar plate inoculated beforehand with the test microorganisms. The size of the inhibition zones is then determined after defined times. In particular, it is possible by this method to determine the MIC (Minimum Inhibitory Concentration) as the lowest concentration of test substance with which complete inhibition of the microorganisms can be obtained. Agar dilution method (MIC determination). Various agars were prepared as described above, test substances were added in various concentrations, homogenized and dried. The Petri dishes were then inoculated with quantities of 2 μl of the bacterial suspension. After each drying step the Petri dishes were incubated for 18 to 24 h at 37° C. […] The results represent the averages of double determinations.

[1] = system: Staphylococcus epidermidis; test: Agar dilution method (MIC determination); conditions: 18 to 24 h at 37° C.
Procedure: as §1

Propionibacterium acnes = test: Agar dilution method (MIC determination); conditions: 18 to 24 h at 37° C.
Procedure: as §1

human hair follicles = test: Inhibition of hair growth, in vitro cultivated hair follicles; conditions: conc. 0.01 % w/v
Procedure: The hair-growth-inhibiting effect of the sugar esters was determined by a method using in vitro cultivated human hair follicles in a growth medium. The growth of the hair follicles was tested in the presence and absence of fructose caprate. To this end, the hair follicles were incubated for 7 days at 37° C./5% CO2. The length of the cultivated hair follicles was recorded after 3 days and 7 days of cultivation. In a comparison example, the growth medium additionally contained 30 ng/ml IGF-1 insulin-like growth factor), a cytokine which stimulates hair follicle growth.
Each of the tests was carried out with 10 hair follicles of a donor (5 donors in all).
The results are set out in Table 9 and represent the mean values of the 50 hair follicles.

MIC, Staphylococcus aureus (Staphylococcus aureus): 1250 µg/mL
MIC, Staphylococcus epidermidis [1]: 1250 µg/mL
MIC, Propionibacterium acnes (Propionibacterium acnes): 625 µg/mL
Substance: Fructose caprate
Hair follicle growth, increase Day 3/day 0 (human hair follicles; + IGF (30 ng/ml IGF-1), control +21%): +15%
Hair follicle growth, increase Day 7/day 0 (human hair follicles; + IGF (30 ng/ml IGF-1), control +45%): +25%
Hair follicle growth, increase Day 3/day 0 (human hair follicles; without IGF, control +15%): +12%
Hair follicle growth, increase Day 7/day 0 (human hair follicles; without IGF, control +32%): +21%
